Laboratory results reported in patent EP1072948B1, “Thermally processed image recording material” (FUJIFILM Corporation, priority 1999, dated 2001).

Key:
[1] = Example 2: image storage stability 2 (developed material stored under light irradiation); conditions: 24 hours, 10,000 luces, relative humidity 50%
Procedure: (§1) Each light-exposed thermally processed image recording material was heat-developed by using a heat-developing apparatus as shown in Fig.1. The roller surface material of the heat development section was composed of silicone rubber, and the flat surface consisted of Teflon non-woven fabric. The heat development was performed at a transportation linear speed of 20 mm/second and a temperature of 90-110°C in the preheating section for 15 seconds (driving units of the preheating section and the heat development section were independent from each other, and speed difference as to the heat development section was adjusted to -0.5% to -1%), and 120°C for 20 seconds in the heat development section, and for 15 seconds in the gradual cooling section. The temperature precision as for the transverse direction was ±1°C.
(§2) The evaluation of the image obtained was performed by using a Macbeth TD904 densitometer (visible density). The measurement results were evaluated as Dmin, sensitivity (evaluated by a relative value of a reciprocal of a ratio of exposure amounts giving a density higher than Dmin by 1.0, and the sensitivity of the thermally processed image recording material of Experiment No. 1 shown in Table 1 below was defined as 100), Dmax, and gradation (contrast) (fresh photographic properties). The contrast was expressed by a gradient of a straight line connecting the points at the densities from which the value for Dmin was subtracted, 0.3 and 1.5, with the abscissa being a logarithm of the exposure amount.

[2] = Example 1: image storage stability 1 (developed material stored in the dark); conditions: 24 hours, relative humidity 50%
Procedure: (§3) After each thermally processed image recording material was light-exposed by a laser sensitometer (details are given below), the thermally processed image recording material was treated at 118°C for 5 seconds and then treated at 122°C for 16 seconds (heat development).
as §2, with “0.5” for “0.3”

[3] = Example 1: image storage stability 2 (developed material stored under light irradiation); conditions: 24 hours, 10,000 luces, relative humidity 50%
Procedure: as §3
as §2, with “0.5” for “0.3”

[4] = Example 2: image storage stability 1 (developed material stored in the dark); conditions: 24 hours, relative humidity 50%
Procedure: as §1, §2

Structure (SMILES)	Image storage stability-2 (stored in light, 40°C, 50%) Dmax ([1]; Table 4, 8×10^-2 mol/mol-Ag)	Image storage stability-2 (stored in light, 40°C, 50%) Dmin ([1]; Table 4, 8×10^-2 mol/mol-Ag)	Image storage stability-1 (stored in dark, 60°C, 50%) Dmax ([2]; Table 2, 1.6×10^-1 mol/mol-Ag)	Image storage stability-1 (stored in dark, 60°C, 50%) Dmin ([2]; Table 2, 1.6×10^-1 mol/mol-Ag)	Image storage stability-2 (stored in light, 40°C, 50%) Dmax ([3]; Table 2, 1.6×10^-1 mol/mol-Ag)	Image storage stability-2 (stored in light, 40°C, 50%) Dmin ([3]; Table 2, 1.6×10^-1 mol/mol-Ag)	Image storage stability-1 (stored in dark, 60°C, 50%) Dmax ([4]; Table 4, 8×10^-2 mol/mol-Ag)	Image storage stability-1 (stored in dark, 60°C, 50%) Dmin ([4]; Table 4, 8×10^-2 mol/mol-Ag)	Image storage stability-1 (stored in dark, 60°C, 50%) Dmax ([2]; Table 1, 1.6×10^-1 mol/mol-Ag)	Image storage stability-1 (stored in dark, 60°C, 50%) Dmin ([2]; Table 1, 1.6×10^-1 mol/mol-Ag)	Image storage stability-2 (stored in light, 40°C, 50%) Dmax ([3]; Table 1, 1.6×10^-1 mol/mol-Ag)	Image storage stability-2 (stored in light, 40°C, 50%) Dmin ([3]; Table 1, 1.6×10^-1 mol/mol-Ag)	Image storage stability-2 (stored in light, 40°C, 50%) Dmax ([1]; Table 3, 8×10^-2 mol/mol-Ag)	Image storage stability-2 (stored in light, 40°C, 50%) Dmin ([1]; Table 3, 8×10^-2 mol/mol-Ag)	Image storage stability-1 (stored in dark, 60°C, 50%) Dmax ([4]; Table 3, 8×10^-2 mol/mol-Ag)	Image storage stability-1 (stored in dark, 60°C, 50%) Dmin ([4]; Table 3, 8×10^-2 mol/mol-Ag)
O=C(c1cccc(S(=O)(=O)C(Br)(Br)Br)c1)N1CCCC1 [Comparative Compound (3)]	3.6	0.23	2.9	0.42	3.0	0.40	3.6	0.44								
CCCCCCCCCCCCCCCCNC(=O)c1cccc(S(=O)(=O)C(Br)(Br)Br)c1 [Comparative Compound (1)]	3.4	0.22	2.8	0.54	2.8	0.43	3.6	0.35								
CCCCNS(=O)(=O)c1cccc(S(=O)(=O)C(Br)(Br)Br)c1 [P-18]									3.0	0.20	3.0	0.20				
CCNC(=O)c1ccccc1S(=O)(=O)C(Br)(Br)Br [Comparative Compound 3]									2.9	0.41	3.0	0.25	4.1	0.15	4.1	0.35
CCCCCCCCN(CCCCCCCC)S(=O)(=O)c1ccc(S(=O)(=O)C(Br)(Br)Br)cc1 [Comparative Compound (4)]	3.6	0.25	2.8	0.59	2.9	0.47	3.7	0.39								
CCCCCCCCCCCCN(CCCCCCCCCCCC)C(=O)c1cc(S(C)(=O)=O)ccc1S(=O)(=O)C(Br)(Br)Br [Comparative Compound (5)]	3.7	0.29	2.8	0.60	2.9	0.50	3.7	0.43								

Second part, the compound after the results:

Image storage stability-2 (stored in light, 40°C, 50%) Dmax ([1]; Table 4, 8×10^-2 mol/mol-Ag)	Image storage stability-2 (stored in light, 40°C, 50%) Dmin ([1]; Table 4, 8×10^-2 mol/mol-Ag)	Image storage stability-1 (stored in dark, 60°C, 50%) Dmax ([2]; Table 2, 1.6×10^-1 mol/mol-Ag)	Image storage stability-1 (stored in dark, 60°C, 50%) Dmin ([2]; Table 2, 1.6×10^-1 mol/mol-Ag)	Image storage stability-2 (stored in light, 40°C, 50%) Dmax ([3]; Table 2, 1.6×10^-1 mol/mol-Ag)	Image storage stability-2 (stored in light, 40°C, 50%) Dmin ([3]; Table 2, 1.6×10^-1 mol/mol-Ag)	Image storage stability-1 (stored in dark, 60°C, 50%) Dmax ([4]; Table 4, 8×10^-2 mol/mol-Ag)	Image storage stability-1 (stored in dark, 60°C, 50%) Dmin ([4]; Table 4, 8×10^-2 mol/mol-Ag)	Image storage stability-1 (stored in dark, 60°C, 50%) Dmax ([2]; Table 1, 1.6×10^-1 mol/mol-Ag)	Image storage stability-1 (stored in dark, 60°C, 50%) Dmin ([2]; Table 1, 1.6×10^-1 mol/mol-Ag)	Image storage stability-2 (stored in light, 40°C, 50%) Dmax ([3]; Table 1, 1.6×10^-1 mol/mol-Ag)	Image storage stability-2 (stored in light, 40°C, 50%) Dmin ([3]; Table 1, 1.6×10^-1 mol/mol-Ag)	Image storage stability-2 (stored in light, 40°C, 50%) Dmax ([1]; Table 3, 8×10^-2 mol/mol-Ag)	Image storage stability-2 (stored in light, 40°C, 50%) Dmin ([1]; Table 3, 8×10^-2 mol/mol-Ag)	Image storage stability-1 (stored in dark, 60°C, 50%) Dmax ([4]; Table 3, 8×10^-2 mol/mol-Ag)	Image storage stability-1 (stored in dark, 60°C, 50%) Dmin ([4]; Table 3, 8×10^-2 mol/mol-Ag)	Structure (SMILES)
								2.9	0.17	3.0	0.17	4.0	0.08	3.9	0.09	COCCCNC(=O)c1cccc(S(=O)(=O)C(Br)(Br)Br)c1 [P-11]
4.0	0.07	3.0	0.18	3.0	0.17	3.9	0.09									CCCCOCCCNC(=O)c1cccc(S(=O)(=O)C(Br)(Br)Br)c1 [P'-15]
								2.1	0.17	2.5	0.17	3.2	0.08	2.7	0.08	CCCCCCOCCN(CC)C(=O)c1cccc(S(=O)(=O)C(Br)(Br)Br)c1 [Comparative Compound 1]
4.0	0.08	3.0	0.17	3.0	0.17	3.9	0.09									CCC(CC)NC(=O)c1cccc(S(=O)(=O)C(Br)(Br)Br)c1 [P'-18]
4.0	0.08	3.0	0.18	3.0	0.17	3.9	0.09									CCOCCNC(=O)c1cccc(S(=O)(=O)C(Br)(Br)Br)c1 [P'-1]
4.0	0.07	3.0	0.17	3.0	0.17	3.9	0.09									CCCC(C)NC(=O)c1cccc(S(=O)(=O)C(Br)(Br)Br)c1 (centres unmarked) [P'-20]
